Consider 26 compounds from ChEMBL document CHEMBL4425117 (Bioorg Med Chem Lett, 2016).

As usually defined, the Ki is a dissociation constant, usually derived from enzyme kinetics or from competition with a known ligand. As usually defined, the IC50 is the concentration at which inhibition is half-maximal.

The target of experiment [1] is T1, Endothelin-1 receptor (Homo sapiens, UniProt P25101).
T1 sequence (P25101 whole entry): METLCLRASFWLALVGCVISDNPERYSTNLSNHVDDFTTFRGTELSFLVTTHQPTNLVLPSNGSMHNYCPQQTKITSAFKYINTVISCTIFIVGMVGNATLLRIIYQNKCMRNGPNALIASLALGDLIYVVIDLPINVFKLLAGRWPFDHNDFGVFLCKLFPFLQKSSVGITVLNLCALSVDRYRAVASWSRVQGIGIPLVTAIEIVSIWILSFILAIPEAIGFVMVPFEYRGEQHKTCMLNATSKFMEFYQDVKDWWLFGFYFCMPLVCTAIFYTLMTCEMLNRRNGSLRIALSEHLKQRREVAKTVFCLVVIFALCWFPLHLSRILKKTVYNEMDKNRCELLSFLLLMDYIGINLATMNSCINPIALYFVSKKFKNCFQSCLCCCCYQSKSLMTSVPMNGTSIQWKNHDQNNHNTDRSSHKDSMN
The experiment is described as follows: Displacement of [125I]-ET-1 from human ETA receptor expressed in CHO cell membranes after 2 hrs by scintillation counting. (In general: In a radioligand displacement assay an active substance lowers the binding of a labelled ligand.)

The target of experiment [2] is T2, Endothelin receptor type B (Homo sapiens, UniProt P24530).
T2 sequence (P24530 whole entry): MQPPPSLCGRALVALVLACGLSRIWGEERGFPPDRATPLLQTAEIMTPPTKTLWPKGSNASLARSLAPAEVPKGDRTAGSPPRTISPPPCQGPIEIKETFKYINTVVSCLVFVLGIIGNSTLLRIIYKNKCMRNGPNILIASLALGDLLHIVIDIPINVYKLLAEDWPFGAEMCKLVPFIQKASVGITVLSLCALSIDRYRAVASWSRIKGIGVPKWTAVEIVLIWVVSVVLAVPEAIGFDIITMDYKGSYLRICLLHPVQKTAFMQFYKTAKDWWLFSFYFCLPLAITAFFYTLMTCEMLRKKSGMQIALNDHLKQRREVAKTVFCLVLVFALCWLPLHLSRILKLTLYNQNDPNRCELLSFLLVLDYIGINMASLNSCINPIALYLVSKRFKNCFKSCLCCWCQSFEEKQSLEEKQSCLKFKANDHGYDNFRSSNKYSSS
Kind of experiment: Displacement of [125I]-ET-1 from human ETB receptor expressed in CHO cell membranes after 2 hrs by scintillation counting.

Where only a bound is given, the exact number is not on record here.

For the compound `COc1cc(OC)nc(O[C@H](C(=O)O)C(OC)(c2ccccc2)c2ccccc2)n1`, the results for the Ki in experiment [1] and in experiment [2] were 6 nM and 371 nM, respectively.

Turning to `Cc1ccc(C2=C(C(=O)O)C(c3ccc4c(c3)OCO4)Oc3ccc(OC(C)C)cc32)s1` (stereo not given), the IC50 was 1 nM in experiment [1] and 1800 nM in experiment [2].

Take `Cc1ccc(=O)n([C@@H](C(=O)NS(=O)(=O)c2ccc(C(C)C)cc2)c2ccc3c(c2)OCO3)n1`: the IC50 in experiment [1] was 29 nM; in experiment [2] it was 3.5 nM.

As for `CCCNS(=O)(=O)Nc1ncnc(OCCOc2ncc(SC)cn2)c1-c1ccc(Cl)cc1`, the figures for the IC50 in experiment [1] and in experiment [2] were 1.5 nM and 686 nM, respectively.

With `CCCNS(=O)(=O)Nc1ncnc(OCCOc2ncc(SC)cn2)c1Oc1ccccc1OC`, the IC50 in experiment [1] was found to be 9.4 nM; in experiment [2], 315 nM.

In the case of `CCCCNS(=O)(=O)Nc1ncnc(OCCOc2ncc(SC)cn2)c1-c1ccc(Br)cc1`, the 50% inhibitory concentration (IC50) stood at 0.3 nM in experiment [1] and 63 nM in experiment [2].

The compound `CCCCNS(=O)(=O)Nc1ncnc(OCCOc2ncc(SC)cn2)c1-c1ccc(Cl)cc1` came in with an IC50 in experiment [1] of 0.3 nM.

In experiment [1], `O=C(O)CCNS(=O)(=O)Nc1ncnc(OCCOc2ncc(Br)cn2)c1-c1ccc(Br)cc1` came in with an IC50 of 0.7 nM.

Take `CC#CCOc1nc(-c2ccnc(-c3nnn[nH]3)c2)nc(NS(=O)(=O)c2ccc(C(C)(C)C)cc2)c1Oc1ccccc1OC`: the figures for the IC50 in experiment [1] and in experiment [2] were 33 nM and 29 nM, respectively.

`CCCNS(=O)(=O)Nc1ncnc(OCCOc2ncc(SC)cn2)c1-c1ccc(Br)cc1`: the values for the IC50 in experiment [1] and in experiment [2] were 0.1 nM and 82 nM, respectively.

For the compound `CCCNS(=O)(=O)Nc1ncnc(OCCOc2ncc(SC)cn2)c1Oc1cccc(OC)c1`, the IC50 in experiment [1] was determined as 1.4 nM; in experiment [2], 90 nM.

With `CCCCNS(=O)(=O)Nc1ncnc(OCCOc2ncc(OC)cn2)c1-c1ccc(Br)cc1`, the half-maximal inhibitory concentration (IC50) was found to be 0.5 nM in experiment [1] and 210 nM in experiment [2].

In experiment [1], `CCCc1nc(SC2CCC(CC(=O)O)CC2)c(C(=O)O)n1Cc1cc2c(cc1Cl)OCO2` (stereo not given) displayed an IC50 of 1.1 nM.

For `CCCNS(=O)(=O)Nc1ncnc(OCCOc2ncc(OC)cn2)c1-c1ccc(Br)cc1`, the IC50 in experiment [1] was 2.4 nM; in experiment [2], 516 nM.

`CNS(=O)(=O)Nc1ncnc(OCCOc2ncc(SC)cn2)c1-c1ccc(Br)cc1`: the IC50 was determined as 2 nM in experiment [1] and 290 nM in experiment [2].

`COc1ccccc1Oc1c(NS(=O)(=O)CCc2cccs2)nc(N2CCOCC2)nc1OCCOC(=O)Nc1ccccn1`: the figures for the IC50 in experiment [1] and in experiment [2] were 1 nM and 100 nM, respectively.

With `CCCc1nc(C)ccc1O[C@@H](C(=O)NS(=O)(=O)c1ccc(C(C)C)cc1)c1ccc2c(c1)OCO2`, the values for the Ki in experiment [1] and in experiment [2] were 0.11 nM and 25 nM, respectively.

In experiment [1], `CCNS(=O)(=O)Nc1ncnc(OCCOc2ncc(SC)cn2)c1-c1ccc(Br)cc1` yielded a half-maximal inhibitory concentration (IC50) of 0.7 nM.

Take `CNS(=O)(=O)Nc1ncnc(OCCOc2ncc(SC)cn2)c1-c1ccc(Cl)cc1`: the IC50 was determined as 3.3 nM in experiment [1] and 555 nM in experiment [2].

On to `COc1ccccc1Oc1c(NS(=O)(=O)c2ccc(C)cn2)nc(-c2ccnc(-c3noc(=S)[nH]3)c2)nc1OCC1CCCO1` (stereo not given), for which the half-inhibitory concentration (IC50) in experiment [1] amounted to 6 nM; in experiment [2], 288 nM.

For `CCCNS(=O)(=O)Nc1ncnc(OCCOc2ncc(Br)cn2)c1Oc1ccccc1OC`, the IC50 was found to be 15.4 nM in experiment [1] and 1430 nM in experiment [2].

Consider `COc1cnc(OCCOc2nc(-c3ccncc3)nc(NS(=O)(=O)NCc3ccccc3)c2-c2ccc(Cl)cc2)nc1`, for which the half-maximal inhibitory concentration (IC50) in experiment [1] amounted to 2 nM; in experiment [2], 569 nM.

For `Cc1ccc(-c2c(NS(=O)(=O)/C=C/c3ccccc3)ncnc2OCCOc2ncc(Br)cn2)cc1`, the IC50 in experiment [1] was 2 nM.

On to `COc1ccc(Cl)c(Oc2c(NS(C)(=O)=O)ncnc2OCCOc2ncc(S(C)(=O)=O)cn2)c1`, for which the IC50 in experiment [1] came out at 3 nM; in experiment [2], 542 nM.

The compound `COC(c1ccccc1)(c1ccccc1)[C@H](Oc1nc(C)cc(C)n1)C(=O)O` [AMBRISENTAN] yielded a 50% inhibitory concentration (IC50) in experiment [1] of 1 nM.

In experiment [2], `COc1nc(C)cnc1NS(=O)(=O)c1cccnc1-c1ccc(-c2nnco2)cc1` [ZIBOTENTAN] registered an IC50 greater than 100 nM.
